In US9597407B2, “Targeted antimicrobial moieties” (C3 Jian, Inc., priority 2009, dated 2017):

Assays:
[1] = system: microorganisms; experiment: Morphology, biofilm and growth disruption by peptides (Table 5); assay type: cell-based; design: key: A: Peptide aggregates; B: Less hyphal formation; Clumps; Diffuse clumps and small polyps; F: Diffuse growth; H: Thin; I: Growth inhibition; Microcolony formation; Rippled; Small polyps; Thick; W: Halo formation on top, microlonies on bottom
Text: In certain embodiments peptides that induce alterations in phenotype or other biological activities can also be used as antimicrobial effector moieties.

[2] = system: microorganisms; experiment: Peptide activities: binding, antimicrobial, growth or phenotype altering (Table 8)
Text: In certain embodiments, peptides described herein can have multiple activities. Thus for example, a peptide can have both binding/targeting activity and antimicrobial activity. Such peptides can be used, e.g., in a chimeric construct, for any or all of these properties. Thus, for example, a peptide designated “B” in Table 8 can be used as a targeting peptide. If it is also designated G or M it can also be used for antimicrobial activity.

Row | Substance | Organism, effect ([1]; B. subtilis) | Organism, effect ([1]; C. jeikeium) | Organism, effect ([1]; C. jejuni) | Organism, effect ([1]; E. coli) | Organism, effect ([1]; E. faecalis) | Organism, effect ([1]; M. luteus) | Organism, effect ([1]; MRSA) | Organism, effect ([1]; S. epidermidis) | Organism, effect ([1]; S. pneumoniae) | Activities [2] | Organism, effect ([1]; P. aeruginosa)
1 | PF-068 (SHLINNFGLSVINPSTPICLNFSPVFNLLTVYGITCN; Peptide with targeting and/or antimicrobial activity) | B. subtilis (A) | C. jeikeium (R) | C. jejuni (D) | E. coli (A) | E. faecalis (A) | M. luteus (D) | MRSA (M) | S. epidermidis (M) | S. pneumoniae (D) | G B | –
2 | PF-124 (MADGQIAAIAKLHGVPVATRNIRHFQSFGVELINPWSG; Peptide with targeting and/or antimicrobial activity) | – | C. jeikeium (R) | – | – | – | – | – | S. epidermidis (C) | – | G B | –
3 | PF-354 (FTFSKCRASNGRGFGTLWL; Peptide with targeting and/or antimicrobial activity) | – | – | – | – | – | – | MRSA (H) | – | – | G B | –
4 | PF-355 (WIAIGLLLYFSLKNQ; Peptide with targeting and/or antimicrobial activity) | – | – | C. jejuni (D) | E. coli (C) | E. faecalis (D) | – | MRSA (A) | S. epidermidis (C) | S. pneumoniae (D) | G B | P. aeruginosa (A)
5 | PF-356 (VSIKIGAIVIGMIGLMELLTE; Peptide with targeting and/or antimicrobial activity) | – | – | C. jejuni (D) | – | E. faecalis (R) | – | MRSA (C) | S. epidermidis (S) | S. pneumoniae (R) | G B | P. aeruginosa (A)
6 | PF-357 (MLTIIIGFIFWTMTLMLGYLIGEREGRKHE; Peptide with targeting and/or antimicrobial activity) | – | – | – | – | – | M. luteus (C) | MRSA (M) | S. epidermidis (M) | S. pneumoniae (M) | G B | –
7 | PF-374 (HLFFVKGMFILCQKNQINDE; Peptide with targeting and/or antimicrobial activity) | – | – | – | E. coli (C) | E. faecalis (C) | – | MRSA (M) | S. epidermidis (C) | – | G B | –
8 | PF-375 (MDSAKAQTMRTDWLAVSCLVASAYLRSMLA; Peptide with targeting and/or antimicrobial activity) | – | – | – | E. coli (C) | E. faecalis (C) | – | MRSA (C) | S. epidermidis (C) | – | G B | –
9 | PF-376 (MTVFEALMLAIAFATLIVKISNKNDKK; Peptide with targeting and/or antimicrobial activity) | – | – | – | E. coli (C) | E. faecalis (C) | – | MRSA (C) | S. epidermidis (C) | – | G B | –
